The test system of this assay is CEM cells HIV-1 protection, formazan growth assay. As to the kind of experiment: NCI AIDS Antiviral Assay. The note with it: for IC50: measured here: growth of uninfected CEM cells. An outline of the steps: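 Screen of anti-HIV-1 activity in human CEM cells using a formazan-based growth measurement at five drug concentrations. Hits with 50% or greater protection were repeated, and confirmation required reproducible complete protection.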

This note sets out measurements from PubChem BioAssay AID179 (DTP/NCI, 2004).

Each structure is given as a SMILES string. Where “and” joins values, the source holds several entries; their conditions need not be identical. Equal values may be shown once. Calls of active or inactive are those of the source.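 How the source made its calls: active means compounds giving half or more protection of infected cells from virus-caused growth loss, again on retest; inactive means the rest.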

Take `CCOc1ccccc1NC(=O)C1=C(C)NC(C)=C(C(=O)Nc2ccccc2OCC)C1c1ccc([N+](=O)[O-])cc1`: the EC50 (as a rule, the concentration that produces a half-maximal response) is over 9.33 µM and the half-maximal inhibitory concentration (IC50) (as a rule, the point on the concentration scale where inhibition reaches its midpoint) is over 9.33 µM.

Turning to `COc1cc(OC)c2nc(C)c(CCCl)c(Cl)c2c1`, the EC50 was over 200 µM and the IC50 was over 200 µM.

`NC(=S)N=Nc1c(O)cc(Nc2ccc(Cl)cc2Cl)c2ccccc12`: the EC50 is over 138 µM and the IC50 is 97.7 µM.

In the case of `CCN(CC)CN1C(=O)C(=O)c2ccccc21`, the EC50 was over 200 µM and the IC50 was over 200 µM.

`CCSc1ccc2c3c(cccc13)C(=O)N(CCc1ccccn1)C2=O`: the EC50 was over 200 µM and the IC50 was over 200 µM.

`COc1cc2c(cc1OC)-c1c3cc(O)ccc3nn[n+]1CC2`: the result was inactive.

With `N=Nc1c2ccccc2c2nc3c(N)[nH]nc(N)c3nc12`, the EC50 is over 45.7 µM and the IC50 was 28.8 µM.

Turning to `CN1C(=O)C(C)(O)c2ccccc21` (stereo unspecified), the EC50 was over 1410 µM and the IC50 worked out at 550 µM.

In the case of `Nc1ccn(CCO)c(=O)n1`, the EC50 is over 1620 µM and the IC50 was over 1620 µM.

`NCCSSSSCCN`: the EC50 was over 132 µM and the IC50 came out at 34.7 µM.

Consider `Cc1nc2c(nc1C)C(=O)c1ccccc1C2=O`, for which the EC50 is over 200 µM and the 50% inhibitory concentration (IC50) is 4.57 µM.

In the case of `O=[N+]([O-])c1ccc(C2NC3=C(CCCC3)N2)cc1`, the EC50 is over 40.7 µM and the IC50 was over 40.7 µM.

Regarding `Cc1ccc2c(c1)sc1nnc(C)n12`, the result was inactive.

As for `NCCCCCCCCCCC(=O)O`, the EC50 is 151 µM and the IC50 was over 200 µM.

With `C#CCN(C(=O)C(F)(F)F)c1ccc(C(=O)c2ccc(N(CC#C)C(=O)C(F)(F)F)cc2)cc1`, the EC50 was over 28.2 µM and the IC50 was over 28.2 µM.

On to `Cc1cc(S(=O)(=O)N2CCNNC2=O)c(S)cc1Cl`, for which the EC50 was 27.5 µM and the IC50 amounted to 50.1 µM.

In the case of `Cc1ccc(S(=O)(=O)c2ccc(N)cc2)cc1`, the outcome was inactive.

As for `CC(C)(C)[Si](C)(C)OCC1OC(n2ccc(N)nc2=O)C(O[Si](C)(C)C(C)(C)C)C1O[Si](C)(C)C(C)(C)C` (stereo unspecified), the EC50 is over 200 µM and the IC50 came out at 10.2 µM.

Consider `CCOC(=O)/C(C)=C(/O)C(=O)OCC`, for which the EC50 is 214 µM and the IC50 stood at 1120 µM.

In the case of `CSc1nnc2sc3cc(C)ccc3n12`, the EC50 is over 200 µM and the 50% inhibitory concentration (IC50) is 123 µM.

As for `O=[N+]([O-])/C(C(Cl)=C(Cl)Cl)=C(\SCc1ccccc1)N1CCCCC1`, the EC50 was over 200 µM and the IC50 is over 200 µM.

`CCc1cc2c(c3c1CCCC3=O)CC1(C2)Cc2cc(CC)c3c(c2C1)C(=O)CCC3`: the EC50 is over 200 µM and the IC50 was found to be 138 µM.

For the molecule `CCC(=O)OC1=C(c2ccccc2)Sc2ccc(Cl)cc2-n2cccc21`, the EC50 is over 200 µM and the IC50 stood at 12 µM.

Regarding `COC(=O)[C@@]12OC[C@]34[C@H]([C@@H](O)[C@@H]1O)[C@@]1(C)CC(=O)C(O)=C(C)[C@@H]1C[C@H]3OC(=O)[C@H](OC(=O)C(N)Cc1ccccc1)[C@@H]24` (stereo partly specified), the result was inactive.

In the case of `COC(=O)/C(C#N)=C\n1c(=S)[nH]c2ccccc21`, the EC50 was over 200 µM and the IC50 was over 200 µM.

For the molecule `CN/N=C(\C(=O)Nc1ccc(C)c(C)c1)C(C(=O)OC)c1nc2ccc([N+](=O)[O-])cc2[nH]c1=O` (stereo unspecified), the EC50 is over 77.6 µM and the 50% inhibitory concentration (IC50) is over 77.6 µM.

With `O=C(CC(C(=O)c1ccco1)c1ccco1)c1ccco1` (stereo unspecified), the EC50 is over 200 µM and the IC50 amounted to 145 µM.

Regarding `CCCCC(=O)c1c(O)c2ccccc2oc1=O`, the EC50 is over 200 µM and the IC50 was 29.5 µM.

As to `CC1OC(O[C@H]2C3C=CO[C@@H](OC4OC(CO)C(O)C(O)C4O)C3[C@@]3(COC(=O)/C=C/c4ccccc4)O[C@@H]23)C(O)C(O)C1O` (stereo partly specified), the EC50 is over 200 µM and the IC50 is over 200 µM.

As for `Cc1ncc2c(=O)c3c(oc2n1)c1ccccc1n3Cc1ccccc1`, the EC50 is over 200 µM and the IC50 is over 200 µM.

As to `O=S(=O)(O)CCS(=O)(=O)O`, the EC50 is over 200 µM and the IC50 was over 200 µM.

Take `Clc1ccc(N=C/C=C/Nc2ccc(Cl)cn2)nc1`: the EC50 was over 200 µM and the IC50 came to 13.8 µM.

For the molecule `CCc1cc2c(c3c1CCCC3)CC1(Cc3ccc(C(=O)OC)cc3C1)C2` (stereo unspecified), the EC50 is over 200 µM and the IC50 is over 200 µM.

In the case of `Cc1cc(CC(O)c2ccc(Cl)c(Cl)c2)nc(=O)[nH]1` (stereo unspecified), the EC50 is over 9.12 µM and the IC50 was over 9.12 µM.

Regarding `Cc1[nH]c(=O)nc2c1C(NCCCN(C)C)c1cc(Cl)ccc1N2` (stereo unspecified), the EC50 was over 200 µM and the IC50 stood at 8.91 µM.

`S=C(Nc1ccc(N=Nc2ccccc2)cc1)SCc1ccc2c(c1)OCO2`: the EC50 was over 200 µM and the IC50 was found to be 10.7 µM.

For the molecule `O=C(C(=O)n1ccc2ccccc21)n1ccc2ccccc21`, the EC50 was over 200 µM and the IC50 came to 178 µM.

In the case of `CC(C)C(=O)N[C@@H](C)C(=O)N(Cc1ccc2ccccc2c1)N=O`, the result was inactive.

On to `COc1cc2c(c([N+](=O)[O-])c1)NC(=O)C(C)S2` (stereo unspecified), for which the EC50 was over 200 µM and the concentration for half-maximal inhibition (IC50) stood at 49 µM.

For `O=C(/C=C/c1ccco1)c1ccc(NCc2nc3ccccc3[nH]2)cc1`, the EC50 was over 20.9 µM and the half-inhibitory concentration (IC50) is over 20.9 µM.

Regarding `CC1(C)OC2OC3C4COC(SSC56OCC(O5)C5OC7OC(C)(C)OC7C5O6)(O4)OC3C2O1` (stereo unspecified), the EC50 was over 200 µM and the IC50 was 26.3 µM.

In the case of `COc1cc(CC2COC(=O)[C@@H]2Cc2ccc(O)c(OC)c2)ccc1O` (stereo partly specified), the EC50 was over 200 µM and the IC50 is 95.5 µM.

Turning to `COC(=O)C1CCC(=O)N1C(c1ccc(OC)cc1)c1ccc2c(c1)OCO2` (stereo unspecified), the EC50 is over 200 µM and the half-maximal inhibitory concentration (IC50) was determined as 11.5 µM.

Consider `COC1C=C(NCC2(CO)CCC2)NC(N)=N1` (stereo unspecified), for which the EC50 is over 200 µM and the IC50 was over 200 µM.

Take `N=c1ccn2c(n1)OC1C(O)C(CO)OC12` (stereo unspecified): the EC50 was 37.2 µM and > 2 µM.

With `CCOC(=O)CCCc1cc(=O)c2c(C)c3[nH]c4ccc(Cl)cc4c3c(C)c2[nH]1`, the EC50 is over 200 µM and the IC50 came to 34.7 µM.

With `CC(C(=O)COCc1ccccc1)P1(=O)OC(C)(C)CN1C(C)(C)C` (stereo unspecified), the EC50 was over 200 µM and the IC50 came to 132 µM.

For the molecule `COc1cc(C(c2cc3c(cc2O)OCO3)N2CCCC2)cc(OC)c1OC` (stereo unspecified), the EC50 was over 200 µM and the IC50 is 7.76 µM.

As to `Cc1ccc(S(=O)(=O)SC(S(=O)(=O)c2ccc(C)cc2)S(=O)(=O)c2ccc(C)cc2)cc1`, the EC50 is over 355 µM and the IC50 was determined as 148 µM.

In the case of `Cc1nn(C(=O)Cc2ccccc2)c2c1C(c1ccccc1O)SC(N)=N2` (stereo unspecified), the EC50 was 57.5 µM and the concentration for half-maximal inhibition (IC50) came out at 398 µM.

In the case of `Cc1ccc(C(=O)/C=C/c2ccc(N(C)C)cc2)cc1`, the EC50 was over 7.59 µM and the IC50 was over 7.59 µM.

As to `C=C(C)CCOC(c1ccccc1)(c1ccccc1)c1ccccc1`, the EC50 is over 21.9 µM and the IC50 was over 21.9 µM.

As to `CCC1=NC(C(F)(F)F)(C(F)(F)F)N=C(N2CCOCC2)O1`, the EC50 is over 200 µM and the IC50 is over 200 µM.

Take `Nc1ccc2oc3cccnc3c2c1`: the EC50 was over 977 µM and the IC50 turned out to be 372 µM.

With `COc1ccc2c(c1)CCN1C3=C(CCC3)C(=O)C[C@@H]21`, the result was inactive.

`c1ccc(COc2nc3ccc(C45CC6CC(CC(C6)C4)C5)cc3[nH]2)cc1`: the EC50 is over 200 µM and the IC50 came out at 7.41 µM.

As for `CCCCCCCCCCCCCCCCCC(=O)NCC(COP(=O)([O-])OCC[N+](C)(C)C)OCC` (stereo unspecified), the result was inactive.

With `COC(=O)C(C(=O)C(=O)NC1=C(Cl)C(=O)c2ccccc2C1=O)c1csc(-n2nc(-c3ccccc3)cc2-c2ccccc2)n1` (stereo unspecified), the EC50 was over 11.2 µM and the IC50 is over 11.2 µM.

Take `COc1ccc(Nc2cc(N)nc(N)n2)c(=S)[nH]1`: the EC50 was over 676 µM and the half-inhibitory concentration (IC50) stood at 57.5 µM.

As to `C1OC1CN1CCC(C2CCN(CC3CO3)CC2)CC1` (stereo unspecified), the EC50 is over 200 µM and the IC50 amounted to 0.269 µM.

For `CC(=O)OCC1OC(n2c(C)c(C(C)=O)c(-c3ccco3)c(C#N)c2=S)C(OC(C)=O)C(OC(C)=O)C1OC(C)=O` (stereo unspecified), the EC50 was over 200 µM; the IC50 was 112 µM and 87.1 µM.

Turning to `COC(=O)c1c(NC(=O)C(C)C)n[nH]c1NC(=O)C(C)C`, the result was inactive.

As for `COc1cc(-c2cc(=O)c3c(O)cc(O)cc3o2)cc(OC)c1OC`, the EC50 was over 64.6 µM and the concentration for half-maximal inhibition (IC50) is over 64.6 µM.

With `CCc1ccc(Nc2ccc([N+](=O)[O-])cc2[N+](=O)[O-])cc1`, the result was inactive.

`OCC1c2ccccc2-n2nc(-c3ccccc3)c(O)c21` (stereo unspecified): the EC50 was over 200 µM and the IC50 was found to be 3.31 µM.

With `N/C(=N/n1c(=S)[nH]c2ccccc2c1=O)Nn1c(=S)[nH]c2ccccc2c1=O`, the EC50 is over 200 µM and the IC50 was determined as 19.1 µM.

Consider `Cc1cc([N+](=O)[O-])c2c(c1)P(=O)(O)c1cc(C)cc([N+](=O)[O-])c1O2`, for which the EC50 was over 200 µM and the IC50 was over 200 µM.

As to `CCOP(=O)(Nc1ccc(-c2ccc(N)cc2)cc1)OCC`, the EC50 is over 200 µM and the IC50 is 170 µM.

On to `Nc1nc(Cl)c2[nH]c(Cl)nc2n1`, for which the EC50 was over 200 µM and the 50% inhibitory concentration (IC50) is 132 µM.

As for `O=C(/C=C\c1ccccc1)c1ccc(-c2ccc([N+](=O)[O-])cc2)cc1`, the outcome was inactive.

For `COc1ccc(C=O)c(NC(=O)C(C)C)c1`, the outcome was inactive.

Consider `NC1=NC2OC(CO)C(O)C2O1` (stereo unspecified), for which the EC50 was over 200 µM and the IC50 was over 200 µM.

Regarding `CC1(C(=O)O)CCC2(C)CCC3(C)C(=CC(=O)C4C5(C)CCC(OC6OC(C(=O)O)C(O)C(O)C6OC6OC(C(=O)O)C(O)C(O)C6O)C(C)(C)C5CCC43C)C2C1` (stereo unspecified), the EC50 is over 302 µM and the IC50 was over 302 µM.

On to `CCOC(=O)C(=O)/C(=C/N1CC(=O)NC1=S)C(=O)OCC`, for which the EC50 was over 200 µM and the IC50 was over 200 µM.
